Data from ChEMBL document CHEMBL3137667, “[Drug-induced liver injury; fourteenth updated edition of the bibliographic database of liver injuries and related drugs]” (Gastroenterol Clin Biol, 2004).

Legend:
[1] = Highest frequency of moderate liver toxicity observed during clinical trials, expressed as a percentage. [column '% BIOL' in source]; conditions: human
[2] = human
[3] = human; remark: listed apart in the source
[4] = human; remark: listed apart in the source
[5] = human; remark: listed apart in the source
[6] = human; remark: listed apart in the source
[7] = human; remark: listed apart in the source
[8] = Highest frequency of acute liver toxicity observed during clinical trials, expressed as a percentage. [column '% AIGUE' in source]; conditions: human
[9] = human; remark: listed apart in the source
[10] = Times to onset, minimal and maximal, observed in the indexed observations. [column 'DELAI' in source]; conditions: human
[11] = human, serum
[12] = Presence of at least one case with successful reintroduction. [column 'REINT' in source]; conditions: human
[13] = human; remark: listed apart in the source
[14] = human, serum; remark: listed apart in the source
[15] = human; remark: listed apart in the source
[16] = human, serum, 4383 h
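Wherever Hepatotoxicity (association with vascular disease) is given: count of indexed literature references reporting vascular liver injury in humans, e.g. peliosis hepatitis, hepatic veno-occlusive disease or Budd-Chiari syndrome.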
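Wherever Hepatotoxicity (benign tumour) is given: value is a count of indexed literature references citing a benign tumour confirmed by histopathology.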
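Wherever Hepatotoxicity (choleostasis) is given: human cholestatic liver injury, shown by histopathology or by peak ALT or AST elevation over alkaline phosphatase ratio below 2, value counts indexed literature reports.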
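Wherever Hepatotoxicity (chronic liver disease) is given: chronic liver injury confirmed by histopathology or persistently raised serum aminotransferase activity beyond 6 months, value given as the count of indexed literature references.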
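Wherever Hepatotoxicity (cirrhosis) is given: value is a count of indexed literature references reporting cirrhosis confirmed by histopathology.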
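Wherever Hepatotoxicity (cytolytic) is given: human cytolytic liver injury, shown by histopathology or by a ratio above 5 of peak ALT or AST elevation to alkaline phosphatase elevation, value counts indexed references.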
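Wherever Hepatotoxicity (granulomatous hepatitis) is given: value is a count of indexed literature references reporting granulomatous liver disease confirmed by histopathology.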
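Wherever Hepatotoxicity (malignant tumour) is given: malignant tumour confirmed by histopathology, value gives the count of indexed literature references reporting it.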
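Wherever Hepatotoxicity (severe hepatitis) is given: human clinical data: severe hepatitis, meaning potentially life-threatening liver failure or clinically observed cases, the value counts how many indexed literature references report it.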
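Wherever Hepatotoxicity (steatosis) is given: steatosis confirmed by histopathology, value is the count of indexed references.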

| Compound | Hepatotoxicity (moderate) [1] [%] | Hepatotoxicity (severe hepatitis) [2] | Hepatotoxicity (granulomatous hepatitis) [3] | Hepatotoxicity (cytolytic) [4] | Hepatotoxicity (malignant tumour) [5] | Hepatotoxicity (association with vascular disease) [6] | Hepatotoxicity (benign tumour) [7] | Hepatotoxicity (acute) [8] [%] | Hepatotoxicity (choleostasis) [9] | Hepatotoxicity (time to onset) [10] | Hepatotoxicity (acute) [11] | Hepatotoxicity (successful reintroduction) [12] | Hepatotoxicity (steatosis) [13] | Hepatotoxicity (moderate) [14] | Hepatotoxicity (cirrhosis) [15] | Hepatotoxicity (chronic liver disease) [16] | also measured |
| --- | --- | --- | --- | --- | --- | --- | --- | --- | --- | --- | --- | --- | --- | --- | --- | --- | --- |
| NS(=O)(=O)c1cc2c(cc1Cl)NCNS2(=O)=O [HYDROCHLOROTHIAZIDE] | 2.4 | 1 | 0 | 3 | 0 | 0 | 0 | 0 | 1 | 17 days - 14 months | 4 | yes | 0 | 2 | 0 | 0 |  |
| Nc1cc(-c2ccncc2)c[nH]c1=O [INAMRINONE] | 33 | 0 | 0 | 2 | 0 | 0 | 0 | 0 | 2 | 1 week - 3 weeks | 6 | yes | 0 | 9 | 0 | 0 |  |
| CN(C)CCCn1c2c(c3ccccc31)CCCCCC2 [IPRINDOLE] |  |  |  |  | 0 | 0 | 0 |  |  | 2 weeks - 1 month | 6 | yes | 0 | 1 | 0 | 0 | Hepatotoxicity (moderate) ([1]; Liver): 0%; Hepatotoxicity (severe hepatitis) ([2]; Liver): 0; Hepatotoxicity (granulomatous hepatitis) ([3]; Liver): 0; Hepatotoxicity (cytolytic) ([4]; Liver): 1; Hepatotoxicity (acute) ([8]; Liver): 0%; Hepatotoxicity (choleostasis) ([9]; Liver): 6 |
| COc1c2occc2c(OC)c2c(=O)cc(C)oc12 [KHELLIN] | 0 | 0 | 0 | 1 | 0 | 0 | 0 | 0 | 0 | 5 weeks | 1 | yes | 0 | 1 | 0 | 0 |  |
| Cc1c(OCC(F)(F)F)ccnc1C[S+]([O-])c1nc2ccccc2[nH]1 (stereo not given) [LANSOPRAZOLE] | 10.5 | 1 | 0 | 3 | 0 | 0 | 0 | 0 | 1 | 13 days - 5 weeks | 4 | yes | 0 | 7 | 0 | 0 |  |
| [Li] [LITHIUM] | 0 | 0 | 0 | 0 | 0 | 0 | 0 | 0 | 0 | 2 days - 2 months | 0 | yes | 0 | 4 | 0 | 1 |  |
| CN(CCCN1c2ccccc2CCc2ccccc21)CC(=O)c1ccc(Cl)cc1 [LOFEPRAMINE] | 46.5 | 1 | 0 | 2 | 0 | 0 | 0 | 2.3 | 3 | 1 week - 12 weeks | 3 | yes | 0 | 7 | 0 | 0 |  |
| N[C@@H](C(=O)N[C@@H]1C(=O)N2C(C(=O)O)=C(Cl)CC[C@H]12)c1ccccc1 [LORACARBEF ANHYDROUS] | 15 | 0 | 0 | 1 | 0 | 0 | 0 | 0 | 1 | 1 week - 6 weeks | 1 | yes | 0 | 19 | 0 | 0 |  |
| CCCCc1nc(Cl)c(CO)n1Cc1ccc(-c2ccccc2-c2nn[nH]n2)cc1 [LOSARTAN] | 20 | 1 | 0 | 4 | 0 | 0 | 0 | 0 | 0 | 2 weeks - 5 months | 5 | yes | 0 | 11 | 0 | 1 |  |
| CCC1(c2ccccc2)C(=O)NC(=O)N(C)C1=O (stereo not given) [MEPHOBARBITAL] | 0 | 0 | 0 | 1 | 0 | 0 | 0 | 0 | 0 | 3 months | 1 | yes | 0 | 0 | 0 | 0 |  |
